Reference: US20090017103A1, “Antisense oligonucleotides for prevention of metastasis formation of cancer cells” (priority 2003, published 2009)
Values joined by “and” are separate entries in the source; they are usually repeats but may differ in a detail not shown here. Equal values may be shown once. “Also recorded” adds a separate entry of the source. Marks after values point to notes of the source that are not given here.

What was measured:
MDA-MB-231^GFP cells [1] = test: In vivo treatment with mini-osmotic pumps (osteolytic bone metastasis model);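 on Mean size of lesion: mean lesion size in relative units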;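 on Size of lesion (per animal): lesion size in relative units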; parameters: species or system nude rats; conditions: for X-ray scan of hind legs: lytic lesions (in words): FIG. 5-7; for T/C / Mean size of lesion / Size of lesion (per animal): mini-osmotic pumps; for T/C: vs NSO control; for T/C × 100: mean lesion size vs NSO control rats; for Incidence of metastasis: mini-osmotic pumps s.c., 7 mg/kg daily over four weeks
MDA-MB-231^GFP cells [2] = test: In vivo model with pretreated MDA-MB-231^GFP cells (osteolytic bone metastasis); parameters: species or system nude rats; lesion size of the rat(s) that developed lytic metastasis, % of control / lesion sizes with respect to all animals of the group compared to untreated control / lesion size of individual animal compared to the untreated control / T/C % (mean lesion size compared to untreated control): concentration or dose not given beside the values; conditions: for T/C × 100: mean lesion size vs untreated control rats; for Incidence of metastasis: cells pretreated in vitro (10 μM);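 on Mean size of lesion: mean lesion size in relative units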
[3] = tested on: MDA-MB-231 breast cancer cells; test: Clonogenicity assay (colony formation); type: cell-based, human; conditions: for inhibition of colony formation (colony growth inhibition): single exposure; for reduction of colony counts: twofold exposure
Outline: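 MDA-MB-231 cells given lipofectamine-complexed ASO (5, 10 or 20 μM, 12 h) and/or ErPC3 (10, 14, 20 μM, 24 h), singly or in sequential cycles, then grown 48-72 h. 5000 cells plated in methylcellulose/30% FBS; MTT-stained colonies (≥30 cells) counted after 5-7 days.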

5′-CTAACTTAAAAAACAAAAGA-3′ (antisense CTAACTTAAAAAACAAAAGA; all phosphorothioate, sugars by position and methylation of C not given here) [ASO-OPN-4]
X-ray scan of hind legs: lytic lesions (in words) (MDA-MB-231^GFP cells [1]; eight weeks after tumor cell implantation): clear increase of lytic lesions in the tibia, however new formation of bone tissue at the edges of the lesions
X-ray scan of hind legs: lytic lesions (in words) (MDA-MB-231^GFP cells [1]; four weeks after tumor cell implantation, therapy from implantation): small lytic lesions in the tibia
X-ray scan of hind legs: lytic lesions (in words) (MDA-MB-231^GFP cells [1]; six weeks after tumor cell implantation): visible lytic lesions in the tibia
X-ray scan of hind legs: lytic lesions (in words) (MDA-MB-231^GFP cells [1]; ten weeks after tumor cell implantation): a decrease of the lesions is clearly visible
T/C (MDA-MB-231^GFP cells [1]; week 4): 58%
T/C (MDA-MB-231^GFP cells [1]; week 12): 26%
T/C × 100 (MDA-MB-231^GFP cells [1]; week 4): 58
Mean size of lesion (MDA-MB-231^GFP cells [1]; week 4): 19 R.U.
Size of lesion (per animal) (MDA-MB-231^GFP cells [1]; week 4): 20 R.U. and 41 R.U. and 0 R.U. (2×) and 34 R.U.
Incidence of metastasis (MDA-MB-231^GFP cells [1]; week 4, 7 mg/kg): three out of five and 3/5
T/C × 100 (MDA-MB-231^GFP cells [1]; week 6): 41
Mean size of lesion (MDA-MB-231^GFP cells [1]; week 6): 73 R.U.
Size of lesion (per animal) (MDA-MB-231^GFP cells [1]; week 6): 35 R.U. and 285 R.U. and 0 R.U. (2×) and 46 R.U.
Incidence of metastasis (MDA-MB-231^GFP cells [1]; week 6): 3/5
T/C × 100 (MDA-MB-231^GFP cells [1]; week 8): 45
Mean size of lesion (MDA-MB-231^GFP cells [1]; week 8): 124 R.U.
Size of lesion (per animal) (MDA-MB-231^GFP cells [1]; week 8): 117 R.U. and 415 R.U. and 27 R.U. and 60 R.U. and 0 R.U.
Incidence of metastasis (MDA-MB-231^GFP cells [1]; week 8): 4/5
T/C × 100 (MDA-MB-231^GFP cells [1]; week 9): 48
Mean size of lesion (MDA-MB-231^GFP cells [1]; week 9): 134 R.U.
Size of lesion (per animal) (MDA-MB-231^GFP cells [1]; week 9): 435 R.U. and 123 R.U. and 53 R.U. and 57 R.U. and 0 R.U.
Incidence of metastasis (MDA-MB-231^GFP cells [1]; week 9): 4/5
T/C × 100 (MDA-MB-231^GFP cells [1]; week 10): 29
Mean size of lesion (MDA-MB-231^GFP cells [1]; week 10): 124 R.U.
Size of lesion (per animal) (MDA-MB-231^GFP cells [1]; week 10): 74 R.U. and 67 R.U. and 45 R.U. and 0 R.U.
Incidence of metastasis (MDA-MB-231^GFP cells [1]; week 10): 4/5
T/C × 100 (MDA-MB-231^GFP cells [1]; week 12): 26
Mean size of lesion (MDA-MB-231^GFP cells [1]; week 12): 112 R.U.
Size of lesion (per animal) (MDA-MB-231^GFP cells [1]; week 12): 31 R.U. (2×) and 64 R.U. and 0 R.U.
Incidence of metastasis (MDA-MB-231^GFP cells [1]; week 12): 3
T/C × 100 (MDA-MB-231^GFP cells [2]; 4 weeks): 3.9
T/C × 100 (MDA-MB-231^GFP cells [2]; 6 weeks): 3.8
T/C × 100 (MDA-MB-231^GFP cells [2]; 8 weeks): 4.3
X-ray scan of hind legs: osteolytic lesions (in words) (MDA-MB-231^GFP cells [2]; FIG. 3 and FIG. 4, one rat each, cells pre-exposed, listed as ASO-OPN-04): no osteolysis; also recorded: no visible lytic lesions
rats in which formation of osteolytic metastasis was inhibited (no visible metastasis) (MDA-MB-231^GFP cells [2]; cells pre-exposed to ASO, observation period of eight weeks, listed as ASO-OPN-04): Three of four and 3 of 4
Incidence of metastasis (MDA-MB-231^GFP cells [2]; observation period 4 weeks): 1/4
Mean size of lesion (MDA-MB-231^GFP cells [2]; observation period 4 weeks, pretreated cells): 8.5 R.U.
Incidence of metastasis (MDA-MB-231^GFP cells [2]; observation period 6 weeks): 1/4
Mean size of lesion (MDA-MB-231^GFP cells [2]; observation period 6 weeks, pretreated cells): 11.5 R.U.
Incidence of metastasis (MDA-MB-231^GFP cells [2]; observation period 8 weeks): 1/4^4)
Mean size of lesion (MDA-MB-231^GFP cells [2]; observation period 8 weeks, pretreated cells): 15 R.U.
T/C % (mean lesion size compared to untreated control) (MDA-MB-231^GFP cells [2]; pretreated cells, after eight weeks): 4.3%
lesion sizes with respect to all animals of the group compared to untreated control (MDA-MB-231^GFP cells [2]; pretreated cells, over observation period week 4 to week 8): about 4%
lesion sizes of the one metastasis-bearing animal compared to the control (MDA-MB-231^GFP cells [2]; pretreated cells, overall observation period (8 weeks)): about 16%
lesion size of the rat(s) that developed lytic metastasis (MDA-MB-231^GFP cells [2]; pretreated cells, week 4): 34 R.U.
lesion size of the rat(s) that developed lytic metastasis, % of control (MDA-MB-231^GFP cells [2]; pretreated cells, week 4, vs mean of the two control groups (197 R.U.)): 17%
lesion size of the rat(s) that developed lytic metastasis (MDA-MB-231^GFP cells [2]; pretreated cells, week 8): 60 R.U.
lesion size of the rat(s) that developed lytic metastasis, % of control (MDA-MB-231^GFP cells [2]; pretreated cells, week 8, vs mean of the two control groups (416 R.U.)): 17%
% Control ([3]; Exp. III a, repeated exposure 2 × 5 μM): 84%
Mean colony no. ([3]; Exp. III a, repeated exposure 2 × 5 μM, control 456): 381^6,8)
% Control ([3]; Exp. III a, repeated exposure 2 × 10 μM): 51%
Mean colony no. ([3]; Exp. III a, repeated exposure 2 × 10 μM, control 456): 233^7,8)
% Control ([3]; Exp. III a, repeated exposure 2 × 20 μM): 40%
Mean colony no. ([3]; Exp. III a, repeated exposure 2 × 20 μM, control 456): 181^7)
% Control ([3]; Experiment I, single treatment, 5 μM): 85%
Mean colony no. ([3]; Experiment I, single treatment, 5 μM, control 778): 658^6)
% Control ([3]; Experiment I, single treatment, 10 μM): 61%
Mean colony no. ([3]; Experiment I, single treatment, 10 μM, control 778): 475^7)
% Control ([3]; Experiment I, single treatment, 20 μM): 53%
Mean colony no. ([3]; Experiment I, single treatment, 20 μM, control 778): 416
% Control ([3]; Experiment III b, repeated exposure 2 × 5 μM): 63%
Mean colony no. ([3]; Experiment III b, repeated exposure 2 × 5 μM, control 517): 330^6,8)
% Control ([3]; Experiment III b, repeated exposure 2 × 10 μM): 57%
Mean colony no. ([3]; Experiment III b, repeated exposure 2 × 10 μM, control 517): 296^7,8)
% Control ([3]; Experiment III b, repeated exposure 2 × 20 μM): 50%
Mean colony no. ([3]; Experiment III b, repeated exposure 2 × 20 μM, control 517): 258^8)
inhibition of colony formation (colony growth inhibition) ([3]; 5 μM): 15%
inhibition of colony formation (colony growth inhibition) ([3]; 10 μM): 39%
inhibition of colony formation (colony growth inhibition) ([3]; 20 μM, listed as ASO-OPN-04, 20 µM): 47% and 46%
reduction of colony counts ([3]; 5 μM): 16%
reduction of colony counts ([3]; 20 μM): 60%
repeated exposure compared with single exposure, colony formation (in words) ([3]; twofold vs single ASO exposure): more effective than single exposure
